Results published in patent US20170189366A1, “METHOD FOR TREATING DISORDERS RELATED TO COMPLEMENT ACTIVATION” (CASE WESTERN RESERVE UNIVERSITY, priority 2006, published 2017).

Legend:
[1] = tested on: C3b activation on RPE-43 cell line; experiment: Alternative pathway-dependent amplification of complement activation on C3b-seeded RPE-43 cell line; assay type: cell-based; details: after addition of C3, factor B, factor D, factor H, read-out: inhibition of further C3b activation
Text: FIGS. 1A-C are a series of graphs showing the ability of an amidine compound according to the present invention to inhibit alternative pathway-dependent amplification of C3 cleavage. In FIG. 1A, factor B, factor D, and C3 were mixed in the absence or presence of increasing concentrations of the amidine compound and generation of C3a was quantified by ELISA. In FIG. 1B, factor B, factor D, C3, and a limiting amount of factor H were mixed in the absence or presence of two doses of the amidine compound following initial deposition of C3b on Bruch's membrane via anti-CEP initiated classical pathway activation. In FIG. 1C, factor B, factor D, C3, and a limiting amount of factor H were mixed in the absence or presence of two doses of the amidine compound following initial deposition of C3b on the RPE-43 cell line by anti-class I monomorphic antibody; and To determine how effective FUT-175 is in preventing alternative pathway-dependent amplification of complement activation on Bruch's membrane and RPE cells, we seeded purified Bruch's membrane from an AMD patient and the RPE-43 cell line with C3b (as would occur with anti-CEP autoantibodies) by sensitization with anti-CEP and anti-HLA monomorphic monoclonal antibodies, respectively, followed by incubation with purified C1, C4, C2, and decay of C1 and C2. […]

[2] = tested on: laser-induced choroidal neovascularization; experiment: Murine laser-induced CNV model; assay type: in vivo, mouse; details: i.p. injection
Text: FIGS. 2A-B are a series of flat mounts showing the effects on lesion size of the amidine compound in a laser-induced CNV mouse model.
As part of our exploration of different strategies for inhibiting complement activation intraocularly so as to arrive at what methodology could be most efficacious for treating AMD patients clinically, we utilized the standard murine CNV model and analyzed the effect of an i.p. injection of FUT-175. As shown diagrammatically in FIGS. 2A-B, the drug reduced lesion size by >80%.

## N=C(N)Nc1ccc(C(=O)Oc2ccc3cc(C(=N)N)ccc3c2)cc1 [FUT-175, 6-amidino-2-napthyl-4-guanidinobenzoate dimethanesulfonate]
[1]
  inhibition at 0.3 µM: ~50%
[2]
  reduction of lesion size: > 80%
